The values below come from patent publication US20130324533A1, “METHOD OF DETECTING RESISTANCE TO CANCER THERAPY” (NATIONAL UNIVERSITY OF SINGAPORE, priority 2010, published 2013).

The test system of experiment [1] is HCC2279 cells. As to the kind of experiment: Western blot of apoptotic signaling in NSCLC cells (PARP, caspase 3 cleavage). Particulars: 0.5 μM gefitinib, […] ABT-737, 24 h, FIG. 25E. Format: cell-based, human. The method, then: FIG. 25E. Western blot showing levels of phospho-EGFR (p-EGFR), PAR P, and caspase 3 cleavage in cells treated for 24 h with 0.5 μM gefitinib, 2.5 μM ABT-737, or both.
Gefitinib and ABT-737 were resuspended in DMSO and kept at −20° C.
Western blotting was performed using antibodies against human BIM, CASPASE 3, cleaved CASPASE 3, PARP, phospho-EGFR (Y1068) (all from Cell Signaling Technology), and β-actin (Sigma).
A general note: A western blot detects proteins with antibodies after separation by electrophoresis.

The test system of experiment [2] is K562-BIM^intron+/− and K562-BIM^intron−/− cells. Nature of the experiment: Western blot of genome-edited K562 clones (BIMEL, cleaved caspase 3, PARP). Format: cell-based, human. Particulars: polymorphism-containing K562 cells; FIG. 16H. The method, then:
Western blots were probed with antibody to BIMEL, cleaved caspase 3, PAR P, CrkL, and β-actin. […] Detection was performed with HRP-conjugated secondary antibodies that are specific to rabbit (Sigma) or mouse IgG (Santa Cruz). The membrane was visualized using the Western Lightning chemiluminescence reagent (PerkinElmer). […] In a 6-well plate, 1×10^6 cells were seeded into each well at a density of 2×10^5 cells/ml. After incubation with the appropriate drug for 48 hours, the cells were harvested for western analysis (FIG. 16).

The test system of experiment [3] is HCC2279 cells. As to the kind of experiment: Trypan blue viability assay in NSCLC cells. The class given is cell-based, human. The method, then: FIG. 25F. Cell viability of PC9 and HCC2279 treated for 48 h with 0.5 μM gefitinib, 2.5 μM ABT-737, or both. Cell viability was determined by trypan blue exclusion, and plotted as a percentage of the no-drug control. (mean+/−standard error of the mean, *p=0.00004 with respect to gefitinib- and ABT-737-treated PC9 cells).
PC9 or HCC2279 cells were seeded in a 24-well plate at 5×10^5 or […] cells per wells in triplicate, and treated with DMSO (no drug), 0.5 μM gefitinib, ABT-737 or combination of gefitinib and ABT-737. Trypan blue staining was performed to assess the number of viable cells 48 hours post treatment.

The test system of experiment [4] is KCL22 cells. Particulars: FIG. 15H and Table H13. The method, then:
Apoptosis was measured using the Annexin V-FITC/7-AAD kit (Beckman Coulter) according to the manufacturer's instructions. Briefly, treated and untreated cells were Annexin V-FITC- and 7-AAD-stained in 1× binding buffer for 15 min at room temperature and then analyzed by flow cytometry.

The next experiment has as its system CML patients. To be noted: cited from earlier work.
The subject of experiment [5] is KCL22 cells. Nature of the experiment: Growth curve of CML cell lines cultured with imatinib (FIG. 5F). Particulars: KCL22 cells with deletion, 1 μM imatinib.
Source text: CML lines were obtained from ATCC (MEG-01 and KU812), JCRB (NCO2) and DSMZ (KCL22, K562, KYO1, JK1, BV173 and NALM1).

Like-named read-outs stand apart in the source and are kept apart here.

Regarding `CN(C)CC[C@H](CSc1ccccc1)Nc1ccc(S(=O)(=O)NC(=O)c2ccc(N3CCN(Cc4ccccc4-c4ccc(Cl)cc4)CC3)cc2)cc1[N+](=O)[O-]` [ABT-737], the “TKI-induced apoptotic signaling on addition of ABT-737” value with HCC2279 cells [1] is reported as “enhanced”. Besides, the “ability of imatinib to activate apoptosis on addition of ABT-737” value in experiment [2] is listed as “enhanced”. Moreover, the “TKI-induced cell death on addition of ABT-737” value in the experiment with HCC2279 cells [3] (HCC2279, 0.5 μM gefitinib, […] ABT-737, 48 h, FIG. 25F) is “enhanced”.

With `COc1cc2ncnc(Nc3ccc(F)c(Cl)c3)c2cc1OCCCN1CCOCC1` [gefitinib], in the experiment with HCC2279 cells [3] (HCC2279, NSCLC cell line carrying the BIM deletion polymorphism, FIG. 25), the “sensitivity of HCC2279 to gefitinib” value is “intrinsically resistant”.

On to `Cc1ccc(NC(=O)c2ccc(CN3CCN(C)CC3)cc2)cc1Nc1nccc(-c2cccnc2)n1` [imatinib], for which the “sensitivity of KCL22 cells to imatinib” value in the experiment on KCL22 cells [4] is on record as “resistant”. Further, the “rate of incomplete cytogenetic responses” value was approximately 50% in the experiment with CML patients (East-Asian countries); 26% with CML patients (Europe and North America). Besides, the “sensitivity of KCL22 cells (growth curve)” value in the experiment on KCL22 cells [5] is recorded as “resistant”.
